According to patent publication US9884063B2, “Amido-substituted azole compounds” (Bayer Pharma Aktiengesellschaft, priority 2014, dated 2018):

What was measured:
[1] = test system: HEK293 FOP control reporter cell line; test: HEK293 FOP Assay (FOP control vector luciferase reporter); format: cell-based; conditions: Homo sapiens
Experimental: In a parallel approach, HEK293 cells were cotransfected with the FOP control vector and pcDNA3. The FOP vector is identical to the TOP construct, but it contains instead of functional TCF elements a randomized, non-functional sequence. For this transfection a stable transfected cell line was generated as well, based on selection with Geneticin (1 mg/ml).
In preparation of the assay, the two cell lines were plated 24 hrs before beginning the test at 10000 cells per well in a 384 micro titre plate (MTP) in 30 μl growth medium. […] The recombinant human Wnt-3a was thereby applied between 2500 and 5 ng/ml in two-fold dilution steps.
Selective inhibitory activity for small molecules on the wildtype Wnt pathway was determined after parallel incubation of both (TOP and FOP) HEK293 reporter cell lines with a compound dilution series from 50 μM to 15 nM in steps of 3.16-fold dilutions in CAFTY buffer (130 mM sodium chloride, 5 mM potassium chloride, 20 mM HEPES, 1 mM magnesium chloride, 5 mM sodium bicarbonate, pH 7.4) containing 2 mM Ca^2+ and 0.01% BSA.
The compounds were thereby serially prediluted in 100% DMSO and thereafter 50 fold into the CAFTY compound dilution buffer (described above).

[2] = test system: wildtype Wnt signaling cascade; test: HEK293 TOP Assay (Super TopFlash luciferase reporter, Wnt-3a stimulated); format: cell-based; conditions: Homo sapiens, HEK293, 16 h
How it was run: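 Compounds (50 μM down to 15 nM, 3.16-fold steps, in CAFTY buffer pH 7.4, 2 mM Ca2+, 0.01% BSA) tested in parallel on TOP and FOP HEK293 reporter lines to define selective wildtype Wnt inhibition. Pathway driven by recombinant human Wnt-3a applied at 2500–5 ng/ml in two-fold dilutions.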

[3] = HEK293 FOP control reporter cell line, 16 hours incubation, compound dilution series 50 μM to 15 nM
[4] = HEK293 TOP reporter cell line, Wnt-3a at EC50, 16 hours incubation, compound dilution series 50 μM to 15 nM
[5] = HEK293 FOP control reporter cells, 16 hours, luciferase, dilution series from 50 μM
[6] = HEK293 TOP reporter cells, Wnt3a at EC50, 16 hours, luciferase

SMILES | IC50 [1, 3] [µM] | IC50 [2, 4] [µM] | IC50 [1, 5] [µM] | IC50 [2, 6] [µM]
CC1CCN(CC(C)(C)NC(=O)c2[nH]cnc2C(=O)Nc2ccc(NC(=O)c3ccccc3Cl)cc2)CC1 [Example 158, N^4-{4-[(2-chlorobenzoyl)amino]phenyl}-N^5-[2-methyl-1-(4-methylpiperidin-1-yl)propan-2-yl]-1H-imidazole-4,5-dicarboxamide] | 29 | 1.2 | – | –
Cc1cc(NC(=O)c2[nH]cnc2C(=O)NCCN(C)C)ccc1NC(=O)c1ccc(F)cc1 [Example 92, N^4-[2-(dimethylamino)ethyl]-N^5-{4-[(4-fluorobenzoyl)amino]-3-methylphenyl}-1H-imidazole-4,5-dicarboxamide] | 13 | 6.95 | – | –
CC1CN(CCNC(=O)c2[nH]cnc2C(=O)Nc2ccc(NC(=O)c3ccccc3Cl)cc2)CC(C)O1 (stereo not drawn) [Example 300, N^4-{4-[(2-chlorobenzoyl)amino]phenyl}-N^5-[2-(2,6-dimethylmorpholin-4-yl)-ethyl]-1H-imidazole-4,5-dicarboxamide] | 31 | 0.56 | – | –
CC(C)(CN1CCCCC1)NC(=O)c1[nH]cnc1C(=O)Nc1ccc(NC(=O)c2ccc(F)cc2)cc1 [Example 156, N^4-{4-[(4-fluorobenzoyl)amino]phenyl}-N^5-[2-methyl-1-(piperidin-1-yl)propan-2-yl]-1H-imidazole-4,5-dicarboxamide] | 15 | 2.5 | – | –
CCNC(=O)c1[nH]cnc1C(=O)Nc1ccc(NC(=O)c2ccc(F)cc2)cc1 [Example 137, N^5-ethyl-N^4-{4-[(4-fluorobenzoyl)amino]phenyl}-1H-imidazole-4,5-dicarboxamide] | 8 | 2.35 | – | –
CC(CNC(=O)c1[nH]cnc1C(=O)Nc1ccc(NC(=O)c2ccccc2Cl)cc1)N1CCN(C)CC1 (stereo not drawn) [Example 186, N^4-{4-[(2-chlorobenzoyl)amino]phenyl}-N^5-[2-(4-methylpiperazin-1-yl)propyl]-1H-imidazole-4,5-dicarboxamide] | 28 | 0.42 | – | –
CNC(=O)c1nc[nH]c1C(=O)Nc1ccc(NC(=O)c2cc(C)ccc2C)cc1 [Example 307, N^5-{4-[(2,5-dimethylbenzoyl)amino]phenyl}-N^4-methyl-1H-imidazole-4,5-dicarboxamide] | 18 | 1.08 | – | –
O=C(Nc1ccc(NC(=O)c2nc[nH]c2C(=O)NCCCN2CCCC2=O)cc1)c1ccc(F)cc1Cl [Example 299, N^4-{4-[(2-chloro-4-fluorobenzoyl)amino]phenyl}-N^5-[3-(2-oxopyrrolidin-1-yl)-propyl]-1H-imidazole-4,5-dicarboxamide] | 43 | 0.74 | – | –
CN1CCN(CC(C)(C)NC(=O)c2[nH]cnc2C(=O)Nc2ccc(NC(=O)c3ccc(F)cc3)cc2)CC1 [Example 195, N^4-{4-[(4-fluorobenzoyl)amino]phenyl}-N^5-[2-methyl-1-(4-methylpiperazin-1-yl)propan-2-yl]-1H-imidazole-4,5-dicarboxamide] | 12 | 1.01 | – | –
CC(C)[C@@H](C)NC(=O)c1[nH]cnc1C(=O)Nc1ccc(NC(=O)c2ccc(F)cc2)cc1 [Example 135, N^4-{4-[(4-fluorobenzoyl)amino]phenyl}-N^5-[(2R)-3-methylbutan-2-yl]-1H-imidazole-4,5-dicarboxamide] | 22 | 7.25 | – | –
CC1CCN(CC(C)(C)NC(=O)c2[nH]cnc2C(=O)Nc2ccc(NC(=O)c3ccc(F)cc3)cc2)CC1 [Example 175, N^4-{4-[(4-fluorobenzoyl)amino]phenyl}-N^5-[2-methyl-1-(4-methylpiperidin-1-yl)propan-2-yl]-1H-imidazole-4,5-dicarboxamide] | 27 | 3.5 | – | –
COC(=O)c1nc[nH]c1C(=O)Nc1ccc(NC(=O)c2ccc(F)cc2)c(C)c1 [Example 90, methyl-5-({4-[(4-fluorobenzoyl)amino]-3-methylphenyl}carbamoyl)-1H-imidazole-4-carboxylate] | 13 | 4.9 | – | –
CNC(=O)c1nc[nH]c1C(=O)Nc1ccc(NC(=O)c2ccc(N(C)C)cc2)cc1 [Example 315, N^5-(4-{[4-(dimethylamino)benzoyl]amino}phenyl)-N^4-methyl-1H-imidazole-4,5-dicarboxamide] | 41 | 14 | – | –
O=C(Nc1ccc(NC(=O)c2nc[nH]c2C(=O)NCCN2CCCC(O)C2)cc1)c1ccc(F)cc1 (stereo not drawn) [Example 167, N^4-{4-[(4-fluorobenzoyl)amino]phenyl}-N^5-[2-(3-hydroxypiperidin-1-yl)ethyl]-1H-imidazole-4,5-dicarboxamide] | 44 | 1.45 | – | –
CNC(=O)c1nc[nH]c1C(=O)Nc1ccc(NC(=O)c2cccc(Cl)c2C)cc1 [Example 341, N^5-{4-[(3-chloro-2-methylbenzoyl)amino]phenyl}-N^4-methyl-1H-imidazole-4,5-dicarboxamide] | 45 | 2.65 | – | –
CNC(=O)c1nc[nH]c1C(=O)Nc1ccc(NC(=O)c2cccc(C(F)(F)F)c2)cc1 [Example 314, N^4-methyl-N^5-(4-{[3-(trifluoromethyl)benzoyl]amino}phenyl)-1H-imidazole-4,5-dicarboxamide] | 24 | 6.9 | – | –
O=C(Nc1ccc(NC(=O)c2[nH]cnc2C(=O)N2CC3(COC3)C2)cc1)c1ccc(F)cc1 [Example 34, N-{4-[(4-fluorobenzoyl)amino]phenyl}-5-(2-oxa-6-azaspiro[3.3]hept-6-ylcarbonyl)-1H-imidazole-4-carboxamide] | – | 12 | ≥ 50 | 12
CC(C)c1nc(C(=O)Nc2ccc(NC(=O)c3ccc(F)cc3Cl)cc2)c(C(=O)NCCN(C)C)[nH]1 [Example 107, N^4-{4-[(2-chloro-4-fluorobenzoyl)amino]phenyl}-N^5-[2-(dimethylamino)ethyl]-2-isopropyl-1H-imidazole-4,5-dicarboxamide] | 39 | 7.25 | – | –
CNC(=O)c1nc[nH]c1C(=O)Nc1ccc(NC(=O)c2ccc(OC)c(OC)c2OC)cc1 [Example 40, N^4-methyl-N^5-{4-[(2,3,4-trimethoxybenzoyl)amino]phenyl}-1H-imidazole-4,5-dicarboxamide] | – | 12 | ≥ 50 | 12
CNC(=O)c1nc[nH]c1C(=O)Nc1ccc(NC(=O)c2ccccc2Cl)c(C)c1 [Example 87, N^5-{4-[(2-chlorobenzoyl)amino]-3-methylphenyl}-N^4-methyl-1H-imidazole-4,5-dicarboxamide] | 28 | 1.25 | – | –
CNC(=O)c1nc[nH]c1C(=O)Nc1ccc(NC(=O)c2c(F)cccc2F)cc1 [Example 38, N^5-{4-[(2,6-difluorobenzoyl)amino]phenyl}-N^4-methyl-1H-imidazole-4,5-dicarboxamide] | 14 | 2.3 | 14 | 2.3
COC(=O)c1nc[nH]c1C(=O)Nc1ccc(NC(=O)c2ccc(F)cc2Cl)c(C)c1 [Example 83, methyl 5-({4-[(2-chloro-4-fluorobenzoyl)amino]-3-methylphenyl}carbamoyl)-1H-imidazole-4-carboxylate] | 29 | 0.39 | – | –
CCN(CC)CCCC(C)NC(=O)c1nc[nH]c1C(=O)Nc1ccc(NC(=O)c2ccc(F)cc2Cl)cc1 (stereo not drawn) [Example 380, N^5-{4-[(2-chloro-4-fluorobenzoyl)amino]phenyl}-N^4-[5-(diethylamino)pentan-2-yl]-1H-imidazole-4,5-dicarboxamide] | 24 | 0.47 | – | –
CC(C)(C)NC(=O)c1[nH]cnc1C(=O)Nc1ccc(NC(=O)c2ccc(F)cc2)cc1 [Example 129, N^5-tert-butyl-N^4-{4-[(4-fluorobenzoyl)amino]phenyl}-1H-imidazole-4,5-dicarboxamide] | 15 | 6.75 | – | –
CN1CCN(NC(=O)c2[nH]cnc2C(=O)Nc2ccc(NC(=O)c3ccccc3Cl)cc2)CC1 [Example 302, N^4-{4-[(2-chlorobenzoyl)amino]phenyl}-N^5-(4-methylpiperazin-1-yl)-1H-imidazole-4,5-dicarboxamide] | 26 | 1.06 | – | –
CN1CCN(C(C)(C)CNC(=O)c2[nH]cnc2C(=O)Nc2ccc(NC(=O)c3ccc(F)cc3)cc2)CC1 [Example 188, N^4-{4-[(4-fluorobenzoyl)amino]phenyl}-N^5-[2-methyl-2-(4-methylpiperazin-1-yl)propyl]-1H-imidazole-4,5-dicarboxamide] | 15 | 5.9 | – | –
CNC(=O)c1nc[nH]c1C(=O)Nc1ccc(NC(=O)c2ccc(C(F)(F)F)cc2)cc1 [Example 316, N^4-methyl-N^5-(4-{[4-(trifluoromethyl)benzoyl]amino}phenyl)-1H-imidazole-4,5-dicarboxamide] | – | 13.5 | – | –
